These are literature values, as cited in patent US9180194B2, “Method and composition for transdermal drug delivery” (Acrux DDS Pty Ltd, priority 2005, dated 2015).

The conditions of the data set: continuous trans-scrotal delivery.

With `C[C@]12CC[C@H]3[C@@H](CCC4=CC(=O)CC[C@@]43C)[C@@H]1CC[C@@H]2O` [testosterone], the “levels of DHT and DHT/testosterone ratios relative to normal” value is reported as 4 to 5 fold.
